Reference: patent US20260159520A1, “HETEROBIFUNCTIONAL COMPOUNDS AND METHODS OF TREATING DISEASE” (Halda Therapeutics OpCo, Inc., priority 2022, published 2026)

How the values were obtained:
Assay type in all cases: cell-based
[1] = system: VCaP cells; assay: Cellular growth inhibition assay for VCaP cells; details: Homo sapiens, 72 hours, CellTiter-Glo 2.0
[2] = system: T-Rex 293 cell line SC cells having increased expression of progesterone receptor isoform B protein; assay: Cellular growth inhibition, T-Rex 293 SC cells with doxycycline (increased progesterone receptor isoform B expression); details: with 10 ng/mL doxycycline (increased progesterone receptor isoform B), 72 hours, CellTiter-Glo 2.0
Method: (§1) The following types of cells were prepared for this experiment: (i) a T-Rex 293 cell line having increased expression of progesterone receptor isoform B protein due to exposure to doxycycline and (ii) a T-Rex 293 cell line lacking increased expression of progesterone receptor isoform B protein. Ability of the test compounds to inhibit proliferation of the foregoing cell types was evaluated according to the procedures set forth below.
(§2) The doxycycline-inducible progesterone receptor isoform B protein expressing cell line was established using the following protocol: T-Rex 293 cells were purchased from Invitrogen (Cat #R71007) and transfected using Lipofectamine 2000 with the wild-type progesterone receptor B protein sequence cloned into the pcDNA4/TO vector. Transfected cells were selected using 400 μg/mL Zeocin (Invitrogen Cat #R25001). Following selection, single clones were raised and maintained in Dulbecco's Modified Eagle Medium (DMEM) supplemented with 10% w/w Tetracycline-free fetal bovine serum (FBS) and 250 μg/mL Zeocin. Clones were analyzed for expression of progesterone receptor isoform B protein in the presence and absence of 10 ng/mL doxycycline (Sigma Cat #D9891), and a single doxycycline-inducible clone (hereinafter “SC”) was selected for use in downstream assays.
(§3) The SC cells were seeded on poly-D-lysine coated, black clear-bottom 384-well plates at 2500/well, in 25 μL Phenol Red Free Dulbecco's Modified Eagle Medium (DMEM) supplemented with 10% w/w charcoal-dextran treated fetal bovine serum (FBS) and 1% w/w pen-strep, with or without 10 ng/mL doxycycline. Pen-Strep is a commercially available mixture of penicillin G and streptomycin, which is used in mammalian cell culture media to prevent bacterial contamination. Phenol Red Free Dulbecco's Modified Eagle Medium (DMEM) supplemented with 10% w/w charcoal-dextran treated fetal bovine serum (FBS) and 1% w/w pen-strep, with or without 10 ng/mL doxycycline is herein referred to as Treatment Medium. Following seeding of cells in the plates, the plates were spun at 300×g for 30 seconds, then equilibrated to room temperature for 30 minutes, and then deposited in a humidified tissue culture incubator maintained at 37° C. with 5% CO2.
(§4) At 24 hours after seeding of the cells, dilutions of test compound were prepared in DMSO and dissolved in Treatment Medium, to achieve a final DMSO concentration of 0.5% w/w, thereby providing the Test Compound Solution. A 25 μL aliquot of the Test Compound Solution was added to cells in the well plates. An equal volume of a solution containing DMSO and Treatment Medium was used as a negative control. Following treatment of cells with Test Compound Solution or said equal volume of a solution containing DMSO and Treatment Medium, the plates were spun at 300×g for 30 seconds, and then left in an incubator for 72 hours.
(§5) At the end of the treatment duration, cell viability was quantified with CellTiter-Glo 2.0 reagent (Promega Cat #G9243). For this purpose, plates were equilibrated to room temperature for 30 minutes, and then 25 μL of CellTiter-Glo 2.0 reagent was added to cells in the plate wells. Plates were then agitated on a shaker for two minutes at 500 rpm and subsequently incubated at room temperature for 10 minutes. Following incubation, the plates were spun at 3000×g for 30 seconds, then sealed with an optical adhesive cover, and luminescence readings were measured with an EnVision Plate Reader (Perkin Elmer).
(§6) Data was normalized using zero luminescence for baseline. A four-parameter non-linear regression curve fit was applied to dose-response data in GraphPad Prism data analysis software to determine the half-maximal growth inhibitory concentration (GI50) for each test compound.

[3] = system: T-Rex 293 cell line SC3 cells having increased expression of androgen receptor protein; assay: Cellular growth inhibition, T-Rex 293 SC3 cells with doxycycline (increased androgen receptor expression); details: with 10 ng/mL doxycycline (increased androgen receptor), 72 hours, CellTiter-Glo 2.0
Summary of the method: (§7)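 Growth inhibition is measured in an inducible AR-expressing T-Rex 293 clone, SC3, cultured with or without 10 ng/mL doxycycline in hormone-depleted medium. Test compounds are applied for 72 hours. GI50 values derive from CellTiter-Glo 2.0 signal fitted by four-parameter regression.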

[4] = system: T-Rex 293 cell line SC cells lacking increased expression of progesterone receptor isoform B protein; assay: Cellular growth inhibition, T-Rex 293 SC cells without doxycycline; details: not exposed to doxycycline, 72 hours, CellTiter-Glo 2.0
Method: as §1, §2, §3, §4, §5, §6

[5] = system: T-Rex 293 cell line SC3 cells lacking increased expression of androgen receptor protein; assay: Cellular growth inhibition, T-Rex 293 SC3 cells without doxycycline; details: not exposed to doxycycline, 72 hours, CellTiter-Glo 2.0
Summary of the method: as §7

[6] = system: T47D cells; assay: Cellular growth inhibition assay for T47D cells; details: Homo sapiens, 72 hours, CellTiter-Glo 2.0
Summary of the method: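 Cells are plated at 3000/well and allowed 24 h before treatment. Test compound in medium containing 0.5% DMSO is then added, with DMSO-only wells as negative control, and plates are incubated 72 h at 37 °C. ATP luminescence (CellTiter-Glo 2.0) is then fitted to four parameters to derive GI50.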

CCc1cnn2c(NCc3ccc(OCCOCCOCCOCCOCCOCCOCCOC4CCN(c5ncc(C(=O)N[C@H]6C(C)(C)[C@H](Oc7ccc(C#N)c(Cl)c7)C6(C)C)cn5)CC4)nc3)cc(N3CCCC[C@H]3CCO)nc12 [Compound I-10]
GI50 [1]: < 100 nM | GI50 [2]: < 500 nM | GI50 [3]: < 100 nM | GI50 [4]: < 500 nM | GI50 [5]: 100 to 1000 nM

CC1(C)[C@H](NC(=O)c2cnc(N3CCC(OCCOCCOCCNS(=O)(=O)c4ccc(Nc5ncc(Br)c(Nc6cccc(F)c6C(N)=O)n5)cc4)CC3)nc2)C(C)(C)[C@H]1Oc1ccc(C#N)c(Cl)c1 [Compound I-14]
GI50 [6]: 500 to 1500 nM | GI50 [2]: > 3000 nM | GI50 [3]: > 3500 nM | GI50 [4]: > 3000 nM | GI50 [5]: > 3500 nM

CCc1cnn2c(NCc3ccc(OCCCCOC4CCN(c5ncc(C(=O)N[C@H]6C(C)(C)[C@H](Oc7ccc(C#N)c(Cl)c7)C6(C)C)cn5)CC4)nc3)cc(N3CCCC[C@H]3CCO)nc12 [Compound I-27]
GI50 [2]: < 500 nM | GI50 [3]: 100 to 1000 nM | GI50 [4]: > 3000 nM | GI50 [5]: > 3500 nM
